Laboratory results taken from ChEMBL document CHEMBL4316583, “In Vitro and in Vivo Antitumor Effects of Plant-Derived Miliusanes and Their Induction of Cellular Senescence” (J Med Chem, 2019).
pIC50: −log10 of the molar value. Active and inactive are the calls of the source. No cut-off for these calls is given here.

How the values were obtained:
[1] = Toxicity in nude BALB/c mouse xenografted with human HCT116 cells assessed as body weight loss at 10 mg/kg, ip administered daily for 3 weeks; type: organism-based; conditions: in vivo, 504 h
[2] = tested on: HCT-116; test: Induction of cellular senescence in human HCT116 cells assessed as up-regulation of CDKN1A gene at 0.22 uM after 48 hrs by qPCR assay; type: functional, cell-based
[3] = tested on: HeLa; test: Antitumor activity against human HeLa cells xenografted in nude BALB/c mouse assessed as tumor growth inhibition at 10 mg/kg, ip administered every other day for 21 days and observed for 6 days before sacrifice relative to control; type: functional; conditions: read-out: TGI
[4] = tested on: HeLa; test: Antitumor activity against human HeLa cells xenografted in nude BALB/c mouse assessed as suppression of excised tumor size at 30 mg/kg, ip administered every other day for 21 days and observed for 6 days before sacrifice relative to control; type: functional
[5] = tested on: Mus musculus; test: Induction of cellular senescence in BALB/c mouse xenografted with human HCT116 cells assessed as up-regulation of p21 protein expression at 20 mg/kg, administered every other day for 3 weeks by immunohistochemical analysis; type: functional, organism-based
[6] = tested on: A-375; test: Antitumor activity against human A375 cells xenografted in nude BALB/c mouse assessed as suppression of tumor volume at 15 mg/kg, ip administered every other day for 23 days relative to control; type: functional; conditions: A-375, ip, 552 h, read-out: TGI
[7] = tested on: HeLa; test: Antitumor activity against human HeLa cells xenografted in nude BALB/c mouse assessed as suppression of excised tumor size at 10 mg/kg, ip administered every other day for 21 days and observed for 6 days before sacrifice relative to control; type: functional
[8] = tested on: HCT-116; test: Induction of cellular senescence in human HCT116 cells assessed as up-regulation of p21 protein expression at 0.22 uM after 48 hrs in presence of p21 siRNA by SA-beta-gal-staining based Western blot analysis; type: functional, cell-based
[9] = Toxicity in nude BALB/c mouse xenografted with human HCT116 cells assessed as body weight loss at 40 mg/kg, administered every other day for 21 days; type: organism-based; conditions: in vivo, 504 h
[10] = tested on: HCT-116; test: Antitumor activity against human HCT116 cells xenografted in nude BALB/c mouse assessed as tumor growth inhibition at 20 mg/kg, ip administered every other day for 21 days relative to control; type: functional; conditions: HCT-116, ip, 504 h, read-out: TGI
[11] = tested on: HCT-116; test: Induction of cellular senescence in human HCT116 cells assessed as up-regulation of TP53 gene at 0.22 uM after 48 hrs by qPCR assay; type: functional, cell-based
[12] = Toxicity in nude BALB/c mouse xenografted with human HCT116 cells assessed as body weight loss at 10 to 20 mg/kg, ip measured on day 10 and 11; type: organism-based; conditions: in vivo
[13] = tested on: Mus musculus; test: Effect on p27 protein expression in BALB/c mouse xenografted with human HCT116 cells at 20 mg/kg, administered every other day for 3 weeks by immunohistochemical analysis; type: functional, organism-based
[14] = tested on: A-375; test: Antitumor activity against human A375 cells xenografted in nude BALB/c mouse assessed as tumor growth inhibition at 15 mg/kg, ip administered every other day for 23 days relative to control; type: functional; conditions: A-375, ip, 552 h, read-out: TGI
[15] = Toxicity in nude BALB/c mouse xenografted with human HCT116 cells assessed as body weight loss at 30 mg/kg, ip administered daily for 3 weeks; type: organism-based; conditions: in vivo, 504 h
[16] = tested on: HCT-116; test: Antiproliferative activity against human HCT116 cells xenografted in BALB/c mouse at 20 mg/kg, administered every other day for 3 weeks by Ki67-staining based assay; type: functional, organism-based
[17] = tested on: HCT-116; test: Antitumor activity against human HCT116 cells xenografted in nude BALB/c mouse assessed as tumor growth inhibition at 20 mg/kg, ip administered daily for 21 days relative to control; type: functional; conditions: HCT-116, ip, 504 h, read-out: TGI
[18] = Toxicity in nude BALB/c mouse xenografted with human HeLa cells assessed as body weight loss at 20 mg/kg, administered every other day for 21 days; type: organism-based; conditions: in vivo, 504 h
[19] = tested on: HCT-116; test: Cytotoxicity against human HCT116 cells assessed as cell growth inhibition after 48 hrs by sulforhodamine B assay; type: functional, cell-based; conditions: HCT-116, 48 h
[20] = tested on: HCT-116; test: Induction of cellular senescence in human HCT116 cells assessed as up-regulation of p21 protein expression at 0.05 to 0.2 ug/ml after 48 hrs by Western blot analysis; type: functional, cell-based
[21] = tested on: HeLa; test: Antitumor activity against human HeLa cells xenografted in nude BALB/c mouse assessed as tumor growth inhibition at 20 mg/kg, ip administered every other day for 21 days and observed for 6 days before sacrifice relative to control; type: functional; conditions: read-out: TGI
[22] = Toxicity in nude BALB/c mouse xenografted with human A375 cells assessed as body weight loss at 15 mg/kg, ip administered every other day for 23 days; type: organism-based; conditions: in vivo, 552 h
[23] = tested on: A-375; test: Antitumor activity against human A375 cells xenografted in nude BALB/c mouse assessed as tumor growth inhibition at 7.5 mg/kg, ip administered every other day for 23 days relative to control; type: functional; conditions: A-375, ip, 552 h, read-out: TGI
[24] = tested on: HeLa; test: Antitumor activity against human HeLa cells xenografted in nude BALB/c mouse assessed as tumor growth inhibition at 30 mg/kg, ip administered every other day for 21 days and observed for 6 days before sacrifice relative to control; type: functional; conditions: read-out: TGI
[25] = tested on: HCT-116; test: Antiproliferative activity against human HCT116 cells assessed as inhibition of colony formation at 1.77 uM after 14 days by crystal violet-staining based assay; type: functional, cell-based
[26] = tested on: HeLa; test: Antitumor activity against human HeLa cells xenografted in nude BALB/c mouse assessed as suppression of excised tumor size at 20 mg/kg, ip administered every other day for 21 days and observed for 6 days before sacrifice relative to control; type: functional
[27] = tested on: HCT-116; test: Induction of cellular senescence in human HCT116 cells at 0.22 uM after 48 hrs by SA-beta-gal-staining based assay; type: functional, cell-based
[28] = tested on: HCT-116; test: Induction of cellular senescence in human HCT116 cells assessed as up-regulation of p16 protein expression at 0.05 to 0.2 ug/ml after 48 hrs by Western blot analysis; type: functional, cell-based
[29] = tested on: HT-29; test: Growth inhibition human HT-29 cells after 72 hrs by MTS assay; type: functional, cell-based
[30] = tested on: A-375; test: Antitumor activity against human A375 cells xenografted in nude BALB/c mouse assessed as suppression of tumor volume at 7.5 mg/kg, ip administered every other day for 23 days relative to control; type: functional; conditions: A-375, ip, 552 h, read-out: TGI
[31] = tested on: Mus musculus; test: Induction of cellular senescence in BALB/c mouse xenografted with human HCT116 cells assessed as up-regulation of p16 protein expression at 20 mg/kg, administered every other day for 3 weeks by immunohistochemical analysis; type: functional, organism-based
[32] = tested on: HCT-116; test: Antitumor activity against human HCT116 cells xenografted in nude BALB/c mouse assessed as tumor growth inhibition at 10 mg/kg, ip administered daily for 21 days relative to control; type: functional; conditions: HCT-116, ip, 504 h, read-out: TGI
[33] = tested on: HCT-116; test: Cytotoxicity against human HCT116 cells assessed as cell growth inhibition after 24 hrs by sulforhodamine B assay; type: functional, cell-based; conditions: HCT-116, 24 h
[34] = Toxicity in nude BALB/c mouse xenografted with human HeLa cells assessed as body weight loss at 30 mg/kg, administered every other day for 21 days; type: organism-based; conditions: in vivo, 504 h
[35] = Toxicity in BALB/c mouse assessed as mortality at 2.5 mg/kg, ip administered daily for 28 days; type: organism-based; conditions: in vivo, read-out: Activity
[36] = tested on: HCT-116; test: Antitumor activity against human HCT116 cells xenografted in nude BALB/c mouse assessed as tumor growth inhibition at 10 mg/kg, ip administered twice a week for 3 weeks relative to control; type: functional; conditions: HCT-116, ip, 504 h, read-out: TGI
[37] = tested on: HCT-116; test: Induction of apoptosis in human HCT116 cells assessed as necrotic cells at 5.86 nM after 48 hrs by annexin V/propidium iodide-double staining based flow cytometry (reference value: […]); type: functional
[38] = tested on: HCT-116; test: Induction of apoptosis in human HCT116 cells assessed as early apoptotic cells at 5.86 nM after 48 hrs by annexin V/propidium iodide-double staining based flow cytometry (reference value: 4.8%); type: functional
[39] = Toxicity in human HCT116 cells xenografted nude BALB/c mouse assessed as tumor growth inhibition at 7.5 mg/kg, ip administered daily for 11 days; type: organism-based; conditions: in vivo, 264 h
[40] = tested on: HCT-116; test: Induction of apoptosis in human HCT116 cells assessed as late apoptotic cells at 5.86 nM after 48 hrs by annexin V/propidium iodide-double staining based flow cytometry (reference value: 4.6%); type: functional
[41] = Toxicity in nude BALB/c mouse xenografted with human A375 cells assessed as body weight loss at 10 mg/kg, ip measured on day 17 and 21; type: organism-based; conditions: in vivo
[42] = tested on: HCT-116; test: Induction of apoptosis in human HCT116 cells assessed as viable cells at 5.86 nM after 48 hrs by annexin V/propidium iodide-double staining based flow cytometry (reference value: 88.3%); type: functional; conditions: HCT-116, 48 h, read-out: Activity
[43] = tested on: HCT-116; test: Antitumor activity against human HCT116 cells xenografted in nude BALB/c mouse assessed as reduction in volume of growing subcutaneous tumor at 10 mg/kg, ip administered twice a week for 3 weeks; type: functional, organism-based
[44] = tested on: A2780; test: Growth inhibition human A2780 cells after 72 hrs by MTS assay; type: functional, cell-based; conditions: A2780, 72 h
[45] = Toxicity in BALB/c mouse assessed as mortality at 5 mg/kg, ip dosed daily and measured on day 25; type: organism-based; conditions: in vivo
[46] = tested on: A-375; test: Cytotoxicity against human A375 cells assessed as cell growth inhibition after 48 hrs by sulforhodamine B assay; type: functional, cell-based; conditions: A-375, 48 h

## CC(C)=CCC/C(C)=C/[C@H]1OC(=O)C[C@]12C[C@H](OC(=O)c1ccc(N(C)C)cc1)C=CC2=O
[1]
  Activity: Non-Toxic
[2]
  Activity: Active
[3]
  inhibition in vivo at 10 mg/kg: 17.2%
[4]
  Activity: 76.9%
[5]
  Activity: Active
[6]
  inhibition in vivo at 15 mg/kg: 39.4%
[7]
  Activity: 29.6%
[8]
  Activity: inactive
[9]
  Activity: Non-Toxic
[10]
  inhibition in vivo at 20 mg/kg: 40 to 48.3%
[11]
  Activity: Active
[12]
  Activity: Toxic
[13]
  Activity: inactive
[14]
  inhibition in vivo at 15 mg/kg: 19.4%
[15]
  Activity: 2 g
[16]
  Activity: Active
[17]
  inhibition in vivo at 20 mg/kg: 57.1%
[18]
  Activity: 0.9 g
[19]
  pIC50: 5.77
[20]
  Activity: Active
[21]
  inhibition in vivo at 20 mg/kg: 54.7%
[22]
  Activity: 1.5 g
[23]
  inhibition in vivo at 7.5 mg/kg: 20.6%
[24]
  inhibition in vivo at 30 mg/kg: 75.9%
[25]
  Activity: Active
[26]
  Activity: 55.4%
[27]
  Activity: Active
[28]
  Activity: Active
[29]
  growth inhibition (GI): Active
[30]
  inhibition in vivo at 7.5 mg/kg: 39.6%
[31]
  Activity: Active
[32]
  inhibition in vivo at 10 mg/kg: 51%
[33]
  pIC50: 5.59
[34]
  Activity: 2.2 g

## CC(=O)O[C@H]1C(=O)[C@@]2(C)[C@H]([C@H](OC(=O)c3ccccc3)[C@]3(O)C[C@H](OC(=O)[C@H](O)[C@@H](NC(=O)c4ccccc4)c4ccccc4)C(C)=C1C3(C)C)[C@]1(OC(C)=O)CO[C@@H]1C[C@@H]2O [PACLITAXEL]
[35]
  mortality at 672 h: 30%
[3]
  inhibition in vivo at 10 mg/kg: 46.5%
[36]
  inhibition in vivo at 10 mg/kg: 52.6%
[7]
  Activity: 48.9%
[37]
  Activity: 9.2%
[38]
  Activity: 14.1%
[39]
  Activity: Toxic
[40]
  Activity: 9.4%
[41]
  Activity: Toxic
[42]
  viability at 0.00586 µM: 67.3%
[43]
  Activity: Active
[44]
  pIC50: 8.82
[45]
  Activity: Toxic
[46]
  pIC50: 8.70
